{"source": "patent US10101331B2", "about": "“Methods of evaluating patients using E-cadherin or vimentin” (AGIOS PHARMACEUTICALS, INC, priority 2012, dated 2018)", "assay_type_in_all_cases": "cell-based", "key": {"[1]": {"tested_on": "panel of 62 lung cancer cell lines", "assay": "Lung cancer cell line panel screened for sensitivity to BPTES, whole panel", "description": "(§1) Of these, 44 of the cell lines have been classified as non-small cell lung cancer (NSCLC). […] Four of the top 25 transcriptional/cellular pathways were related to the epithelial-mesenchymal transition (EMT) (ranks 1, 15, 23, 25 of FIG. 2). […] Low E-cadherin/high vimentin are well-defined markers of cells that have a mesenchymal phenotype as characterized for example, in any one of the following references: (Yauch et al., (2005) Cin Cancer Res 11:24; Savagner et al., (2010) Ann Oncol. 21(suppl 7): vii89; Thiery et al., (2002) Nature Reviews Cancer June vol 2:442)."}, "A427 cells [2]": {"tested_on": "A427 cells", "assay": "13C(5)-Gln labeling of glutamate and aspartate, LC/MS", "settings": "1 hr drug pre-treatment, 2 hr 13C(5)-Gln labeling", "protocol": "(§2) A427 parent cells or lines stably expressing pLVX empty vector control (Con), wild-type GAC (GAC), or a BPTES-resistant GAC enzyme (GAC-BR) were treated with indicated concentrations of drugs in a 72 hr proliferation assay. […] Calculated p-values from student t-test, * (3×10^−8), **(10^−9), ^#(10^−7), ^##(2×10^−6).\nSeveral groups have shown that GLS inhibition leads to a decrease in cellular tricarboxylic acid cycle (TCA) intermediates downstream of GLS activity (P. Gao et al. Nature 458, 762 (2009); T. Cheng et al. Proceedings of the National Academy of Sciences 108, 8674 (2011)). Measurement of glutamate (the product of the glutaminase reaction) and aspartate (which derives both carbon and nitrogen from glutamate) are particularly sensitive readouts of glutaminase activity (FIG. 13). ^13C labeled carbon in cells pre-treated with drug was tracked for 1 hr, followed by a 2 hr ^13C(5)-Gln labeling period, via LC/MS."}, "MDA-MB-231 cells": {"tested_on": "MDA-MB-231 cells", "assay": "72 hr proliferation assay in lines stably expressing empty vector, GAC or GAC-BR", "protocol": "MDA-MB-231 cell lines stably expressing empty vector control (Con), wild-type GAC (GAC), or a BPTES-resistant GAC enzyme (GAC-BR) were treated with indicated concentrations of drugs in a 72 hr proliferation assay. […] Calculated p-values from student t-test, * (3×10^−5), **(7×10^−10), ^#(3×10^−5), ^##(5×10^−7).\n(§3) Levels of overexpression of the GAC WT and GAC-BR mutant were approximately 1.5-2.0 fold above endogenous GLS1 levels (FIG. 12)."}, "A427 cells [3]": {"tested_on": "A427 cells", "assay": "72 hr proliferation assay in lines stably expressing empty vector, GAC or GAC-BR", "protocol": "as §2, §3"}, "HCT116": {"tested_on": "HCT116", "assay": "72 hr proliferation assay using CellTiter-Glo in 96-well format", "settings": "72 hr treatment", "description": "(§4) FIGS. 8A-8C depict the GLS1 dependence in selected cancer cell lines. FIG. 8A depicts a western blot analysis of GLS1 and GLS2 protein levels in indicated cell lines. KGA and GAC alternative splice variants are indicated.\n(§5) Proc of the National Academy of Sciences 109, 1092 (2012); McBryant Supra; DeLaBarre, Supra). […] This loop differs in primary sequence between GLS1 and GLS2, thereby explaining the differential response of the two isoforms."}, "HUH7": {"tested_on": "HUH7", "assay": "72 hr proliferation assay using CellTiter-Glo in 96-well format", "settings": "72 hr treatment", "description": "as §4, §5"}, "MDA-MB-231": {"tested_on": "MDA-MB-231", "assay": "72 hr proliferation assay using CellTiter-Glo in 96-well format", "settings": "72 hr treatment", "description": "as §4, §5"}, "CAKI-1": {"tested_on": "CAKI-1", "assay": "72 hr proliferation assay using CellTiter-Glo in 96-well format", "settings": "72 hr treatment", "description": "as §4, §5"}, "A427": {"tested_on": "A427", "assay": "72 hr proliferation assay using CellTiter-Glo in 96-well format", "settings": "72 hr treatment", "description": "as §4, §5"}, "SKBR3": {"tested_on": "SKBR3", "assay": "72 hr proliferation assay using CellTiter-Glo in 96-well format", "settings": "72 hr treatment", "description": "as §4, §5"}, "HepG2": {"tested_on": "HepG2", "assay": "72 hr proliferation assay using CellTiter-Glo in 96-well format", "settings": "72 hr treatment", "description": "as §4, §5"}, "PC3": {"tested_on": "PC3", "assay": "72 hr proliferation assay using CellTiter-Glo in 96-well format", "settings": "72 hr treatment", "description": "as §4, §5"}, "NCI-H1573": {"tested_on": "NCI-H1573", "assay": "Lung cancer cell line panel screened for sensitivity to BPTES, 72 hr proliferation assay", "description": "as §1"}, "NCI-H23": {"tested_on": "NCI-H23", "assay": "Lung cancer cell line panel screened for sensitivity to BPTES, 72 hr proliferation assay", "description": "as §1"}, "NCI-H2170": {"tested_on": "NCI-H2170", "assay": "Lung cancer cell line panel screened for sensitivity to BPTES, 72 hr proliferation assay", "description": "as §1"}, "NCI-H292": {"tested_on": "NCI-H292", "assay": "Lung cancer cell line panel screened for sensitivity to BPTES, 72 hr proliferation assay", "description": "as §1"}, "NCI-H1373": {"tested_on": "NCI-H1373", "assay": "Lung cancer cell line panel screened for sensitivity to BPTES, 72 hr proliferation assay", "description": "as §1"}, "NCI-H522": {"tested_on": "NCI-H522", "assay": "Lung cancer cell line panel screened for sensitivity to BPTES, 72 hr proliferation assay", "description": "as §1"}, "NCI-H1838": {"tested_on": "NCI-H1838", "assay": "Lung cancer cell line panel screened for sensitivity to BPTES, 72 hr proliferation assay", "description": "as §1"}, "NCI-H524": {"tested_on": "NCI-H524", "assay": "Lung cancer cell line panel screened for sensitivity to BPTES, 72 hr proliferation assay", "description": "as §1"}, "NCI-H1651": {"tested_on": "NCI-H1651", "assay": "Lung cancer cell line panel screened for sensitivity to BPTES, 72 hr proliferation assay", "description": "as §1"}, "NCI-H1666": {"tested_on": "NCI-H1666", "assay": "Lung cancer cell line panel screened for sensitivity to BPTES, 72 hr proliferation assay", "description": "as §1"}, "SW900": {"tested_on": "SW900", "assay": "Lung cancer cell line panel screened for sensitivity to BPTES, 72 hr proliferation assay", "description": "as §1"}, "DMS-153": {"tested_on": "DMS-153", "assay": "Lung cancer cell line panel screened for sensitivity to BPTES, 72 hr proliferation assay", "settings": "DMS-153 cell line", "description": "as §1"}, "NCI-H748": {"tested_on": "NCI-H748", "assay": "Lung cancer cell line panel screened for sensitivity to BPTES, 72 hr proliferation assay", "description": "as §1"}, "NCI-H520": {"tested_on": "NCI-H520", "assay": "Lung cancer cell line panel screened for sensitivity to BPTES, 72 hr proliferation assay", "description": "as §1"}, "NCI-H28": {"tested_on": "NCI-H28", "assay": "Mesothelioma cancer cell lines screened for sensitivity to BPTES", "settings": "NCI-H28, among mesothelioma cancer cell lines", "description": "The MET-5A cell line is a normal […] cell line.\nLow E-cadherin/high vimentin are well-defined markers of cells that have a mesenchymal phenotype as characterized for example, in any one of the following references: (Yauch et al., (2005) Cin Cancer Res 11:24; Savagner et al., (2010) Ann Oncol. 21(suppl 7): vii89; Thiery et al., (2002) Nature Reviews Cancer June vol 2:442)."}}, "note": "“Also recorded” adds a separate entry of the source.", "data": [{"molecule": "O=C(Cc1ccccc1)Nc1nnc(CCSCCc2nnc(NC(=O)Cc3ccccc3)s2)s1", "note": "[BPTES]", "values": [{"measurement": "share of the 62 lines with significant sensitivity to BPTES (μ/μmax<0.6)", "setting": "[1]", "result": "Approximately 30%"}, {"measurement": "13C label accumulation in glutamate and aspartate", "setting": "A427 cells [2]", "result": "decreased label accumulation"}, {"measurement": "sensitivity to BPTES", "setting": "MDA-MB-231 cells; MDA-MB-231 cells expressing empty vector or GAC-WT", "result": "retained significant sensitivity"}, {"measurement": "sensitivity to BPTES", "setting": "MDA-MB-231 cells; MDA-MB-231 cells with stable overexpression of the GAC-BR mutant", "result": "rendered resistant"}, {"measurement": "sensitivity to BPTES", "setting": "A427 cells [3]; A427 cells expressing empty vector or GAC-WT", "result": "retained significant sensitivity"}, {"measurement": "sensitivity to BPTES", "setting": "A427 cells [3]; A427 cells with stable overexpression of the GAC-BR mutant", "result": "rendered resistant"}, {"measurement": "response to the compound", "setting": "HCT116", "result": "minimal response"}, {"measurement": "response to the compound", "setting": "HUH7", "result": "minimal response"}, {"measurement": "sensitivity to BPTES treatment", "setting": "MDA-MB-231", "result": "modest sensitivity"}, {"measurement": "sensitivity to BPTES treatment", "setting": "CAKI-1", "result": "modest sensitivity"}, {"measurement": "response to BPTES treatment", "setting": "A427", "result": "Maximum response"}, {"measurement": "response to BPTES treatment", "setting": "SKBR3", "result": "minimum effect; also recorded: minimal response"}, {"measurement": "sensitivity to BPTES treatment", "setting": "HepG2", "result": "modest sensitivity"}, {"measurement": "response to the compound", "setting": "PC3", "result": "minimal response"}, {"measurement": "μ/μmax", "setting": "NCI-H1573", "result": 0.92}, {"measurement": "Max Inh @ 10 uM (%)", "setting": "NCI-H23; NCI-H23, 10 uM", "result": 45, "unit": "%"}, {"measurement": "Mu/max @10 uM", "setting": "NCI-H23; NCI-H23, 10 uM", "result": 0.60}, {"measurement": "μ/μmax @10 uM", "setting": "NCI-H23; NCI-H23, 10 uM", "result": 0.60}, {"measurement": "μ/μmax", "setting": "NCI-H23; NCI-H23 cell line", "result": 0.60}, {"measurement": "μ/μmax", "setting": "NCI-H2170", "result": 0.82}, {"measurement": "μ/μmax", "setting": "NCI-H292", "result": 0.89}, {"measurement": "μ/μmax", "setting": "NCI-H1373", "result": 0.79}, {"measurement": "Max Inh @ 10 uM (%)", "setting": "NCI-H522; NCI-H522, 10 uM", "result": 39, "unit": "%"}, {"measurement": "Mu/max @10 uM", "setting": "NCI-H522; NCI-H522, 10 uM", "result": 0.61}, {"measurement": "μ/μmax @10 uM", "setting": "NCI-H522; NCI-H522, 10 uM", "result": 0.61}, {"measurement": "μ/μmax", "setting": "NCI-H522; NCI-H522 cell line", "result": 0.61}, {"measurement": "μ/μmax", "setting": "NCI-H1838", "result": 0.63}, {"measurement": "μ/μmax", "setting": "NCI-H524", "result": 0.53}, {"measurement": "μ/μmax", "setting": "NCI-H1651", "result": 1.00}, {"measurement": "μ/μmax", "setting": "NCI-H1666", "result": 1.00}, {"measurement": "μ/μmax", "setting": "SW900", "result": 0.70}, {"measurement": "μ/μmax", "setting": "DMS-153", "result": 0.58}, {"measurement": "μ/μmax", "setting": "NCI-H748", "result": 0.76}, {"measurement": "Max Inh @ 10 uM (%)", "setting": "NCI-H520; NCI-H520, 10 uM", "result": 14, "unit": "%"}, {"measurement": "Mu/max @10 uM", "setting": "NCI-H520; NCI-H520, 10 uM", "result": 0.79}, {"measurement": "μ/μmax @10 uM", "setting": "NCI-H520; NCI-H520, 10 uM", "result": 0.79}, {"measurement": "μ/μmax", "setting": "NCI-H520; NCI-H520 cell line", "result": 0.79}, {"measurement": "sensitivity to BPTES", "setting": "NCI-H28", "result": "most sensitive"}]}]}
